Experimental findings from ChEMBL document CHEMBL1127718, “Quinoline-4-carboxylic acids as angiotensin II receptor antagonists” (Bioorg Med Chem Lett, 1994) are described below.

Broadly, the Kb is the affinity of an antagonist, worked out from how it opposes an agonist. The low end stands for a more potent antagonist, the high end for a less potent antagonist. As a reminder, the Ki is the equilibrium dissociation constant of an inhibitor or competing ligand from its target. A low value points to tighter binding.

For one experiment, the species on record is Oryctolagus cuniculus. Description: In vitro functional antagonism was determined by ability of a single concentration of compound to block AII induced contractions in rabbit aortic smooth muscle strip. Particulars: Aorta.
The target in experiment [1] is T1, Type-1 angiotensin II receptor B (Rattus norvegicus, UniProt P29089).
T1 sequence (P29089 whole entry): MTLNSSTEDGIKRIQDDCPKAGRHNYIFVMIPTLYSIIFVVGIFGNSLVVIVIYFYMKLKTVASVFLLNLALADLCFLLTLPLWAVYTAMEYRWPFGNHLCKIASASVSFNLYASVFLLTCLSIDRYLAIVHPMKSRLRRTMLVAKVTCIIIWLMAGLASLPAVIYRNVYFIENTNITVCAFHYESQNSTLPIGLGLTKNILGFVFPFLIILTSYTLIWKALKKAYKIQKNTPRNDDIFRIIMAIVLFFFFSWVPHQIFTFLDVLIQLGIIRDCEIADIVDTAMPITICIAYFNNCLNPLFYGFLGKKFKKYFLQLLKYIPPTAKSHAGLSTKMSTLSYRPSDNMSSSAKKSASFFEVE
Put plainly: Inhibition of [125I]Sar1,Ile8 angiotensin II binding to Angiotensin II receptor type 1 in rat adrenocortical membrane. It counts as cell membranes.

In turn, `Cc1cccc2c(C(=O)O)c(Oc3ccc(-c4ccccc4-c4nnn[nH]4)cc3)c(C3CC3)nc12` gave a Kb in the experiment filed under Oryctolagus cuniculus of 8.3 nM. For the same compound, the affinity in experiment [1] corresponds to a Ki of 1300 nM.

Take `CCCc1nc2ccccc2c(C(=O)O)c1Oc1ccc(-c2ccccc2-c2nnn[nH]2)cc1`: in the experiment listed under Oryctolagus cuniculus, the Kb worked out at 0.091 nM. This compound also returned a Ki in experiment [1] of 3.4 nM.

Compound `O=C(O)c1c(Oc2ccc(-c3ccccc3-c3nnn[nH]3)cc2)c(C2CC2)nc2ncccc12` showed a Kb in the experiment filed under Oryctolagus cuniculus of 0.76 nM. In addition, affinity in experiment [1] was put at a Ki of 4.6 nM.

On to `CCc1nc2ccccc2c(C(=O)O)c1Oc1ccc(-c2ccccc2-c2nn[nH]n2)cc1`, for which the Kb in the experiment filed under Oryctolagus cuniculus stood at 0.12 nM. In addition, in experiment [1], the Ki came out at 5.9 nM.

In turn, `O=C(O)c1cccc2nc(C3CC3)c(Oc3ccc(-c4ccccc4-c4nn[nH]n4)cc3)c(C(=O)O)c12` showed a Kb in the experiment listed under Oryctolagus cuniculus of 2 nM. Besides, the Ki in experiment [1] worked out at 120 nM.

Compound `Cc1nc2ccccc2c(C(=O)O)c1Oc1ccc(-c2ccccc2-c2nn[nH]n2)cc1` displayed a Kb in the experiment listed under Oryctolagus cuniculus of 1.1 nM. Also, in experiment [1], affinity was put at a Ki of 3.2 nM.

As for `O=C(O)c1c(Oc2ccc(-c3ccccc3-c3nn[nH]n3)cc2)c(C2CC2)nc2cc(Cl)ccc12`, in the experiment filed under Oryctolagus cuniculus, the Kb was 0.18 nM. This compound also displayed a Ki in experiment [1] of 32 nM.

Regarding `O=C(O)c1c(Oc2ccc(-c3ccccc3-c3nnn[nH]3)cc2)c(C2CC2)nc2cccnc12`, in the experiment filed under Oryctolagus cuniculus, the antagonist dissociation constant (Kb) stood at 0.67 nM. For the same compound, the Ki in experiment [1] turned out to be 2.1 nM.

`O=C(O)c1c(Oc2ccc(-c3ccccc3-c3nn[nH]n3)cc2)c(C2CC2)nc2ccccc12` returned a Kb in the experiment filed under Oryctolagus cuniculus of 0.061 nM. Also, the Ki in experiment [1] is 2.9 nM.

Turning to `Cc1cccc2nc(C3CC3)c(Oc3ccc(-c4ccccc4-c4nnn[nH]4)cc3)c(C(=O)O)c12`, in the experiment listed under Oryctolagus cuniculus, the antagonist dissociation constant (Kb) is 0.4 nM. In addition, affinity in experiment [1] was put at a Ki of 12 nM.

Take `O=C(O)c1c(Oc2ccc(-c3ccccc3-c3nnn[nH]3)cc2)c(C2CC2)nc2ccc(F)cc12`: the Kb in the experiment listed under Oryctolagus cuniculus amounted to 0.61 nM. The Ki in experiment [1] turned out to be 14 nM.

Take `COc1ccc2nc(C3CC3)c(Oc3ccc(-c4ccccc4-c4nn[nH]n4)cc3)c(C(=O)O)c2c1`: in the experiment listed under Oryctolagus cuniculus, the Kb worked out at 0.2 nM. The Ki in experiment [1] came to 33 nM.
